The test system of data set [1] is MDA-MB-231 cells. Briefly: Cell viability (MTT) assay, MDA-MB-231. As to conditions: Homo sapiens, MDA-MB-231, 48 h, read-out: Antiproliferative IC50, MDA-MB-231.
Description: Section S 1.3 Cell viability assays
(§1) Cell Bank at the Chinese Academy of Sciences.
(§2) DMEM and FBS were obtained from Gibco-Thermo (BRL Co. Ltd., USA).
(§3) another 48 h. The cells were stained with 10 μl of MTT at incubator for approximately 4 h. The medium was discarded and replaced by 100 mL DMSO. The O.D. value was read at 570/630 nm with a spectrophotometer.
In data set [2] the test system is SW480 cells. Briefly: Cell viability (MTT) assay, SW480. As to conditions: Homo sapiens, SW480, 48 h, read-out: Antiproliferative IC50, SW480.
Description: Section S 1.3 Cell viability assays
as §1, §2, §3
In data set [3] the test system is HCT-116 cells. Briefly: Cell viability (MTT) assay, HCT-116. As to conditions: Homo sapiens, HCT-116, 48 h, read-out: Antiproliferative IC50, HCT-116.
Description: Section S 1.3 Cell viability assays
as §1, §2, §3
Data set [4] has as its system MCF-7 cells. Description: Cell viability (MTT) assay, MCF-7. As to conditions: Homo sapiens, MCF7, 48 h, read-out: Antiproliferative IC50, MCF-7.
Description: Section S 1.3 Cell viability assays
as §1, §2, §3
The target of data set [5] is T1, HDAC6 human recombinant enzyme (Homo sapiens, UniProt Q9UBN7).
T1 sequence (Q9UBN7 1-1215): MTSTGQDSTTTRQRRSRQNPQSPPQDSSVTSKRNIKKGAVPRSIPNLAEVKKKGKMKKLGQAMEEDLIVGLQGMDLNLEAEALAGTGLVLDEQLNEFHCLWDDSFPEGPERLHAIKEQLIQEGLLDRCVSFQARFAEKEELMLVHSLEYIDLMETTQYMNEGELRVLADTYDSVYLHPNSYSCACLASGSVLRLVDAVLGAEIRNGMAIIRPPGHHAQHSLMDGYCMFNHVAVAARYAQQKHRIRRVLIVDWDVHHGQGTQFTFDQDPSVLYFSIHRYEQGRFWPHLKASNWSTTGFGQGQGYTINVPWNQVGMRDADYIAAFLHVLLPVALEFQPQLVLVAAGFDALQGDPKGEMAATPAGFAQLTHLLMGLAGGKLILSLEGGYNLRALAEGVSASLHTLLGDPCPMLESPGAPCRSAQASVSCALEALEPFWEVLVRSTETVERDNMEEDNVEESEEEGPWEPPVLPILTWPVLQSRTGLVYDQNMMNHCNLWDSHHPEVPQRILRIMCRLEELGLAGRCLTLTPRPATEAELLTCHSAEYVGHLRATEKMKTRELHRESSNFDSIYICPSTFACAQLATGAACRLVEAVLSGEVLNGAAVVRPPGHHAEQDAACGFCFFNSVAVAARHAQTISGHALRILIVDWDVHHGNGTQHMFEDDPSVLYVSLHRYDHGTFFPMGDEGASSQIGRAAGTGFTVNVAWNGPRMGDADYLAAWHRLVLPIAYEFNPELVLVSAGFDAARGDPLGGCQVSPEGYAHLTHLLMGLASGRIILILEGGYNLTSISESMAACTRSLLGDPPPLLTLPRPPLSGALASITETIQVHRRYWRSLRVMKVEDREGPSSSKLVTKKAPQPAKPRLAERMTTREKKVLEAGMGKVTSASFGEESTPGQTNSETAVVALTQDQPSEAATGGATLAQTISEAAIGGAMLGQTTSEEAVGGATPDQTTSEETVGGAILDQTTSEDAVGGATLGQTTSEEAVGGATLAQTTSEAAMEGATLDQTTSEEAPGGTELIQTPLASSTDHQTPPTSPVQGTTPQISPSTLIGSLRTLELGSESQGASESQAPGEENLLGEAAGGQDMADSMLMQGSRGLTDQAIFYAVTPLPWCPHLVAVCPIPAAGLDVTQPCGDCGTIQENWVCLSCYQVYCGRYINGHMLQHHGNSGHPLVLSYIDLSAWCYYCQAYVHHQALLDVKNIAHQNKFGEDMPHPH
Description: HDAC6 enzyme inhibitory activity assay. The class given is biochemical. The conditions noted are these: read-out: HDAC6 Inhibition Rate at 1 μM. The procedure:
Section S1. Biological assays
Section S 1.1. HDAC6 enzyme inhibitory activity assay
Preparation of Master Mix. Trichostatin A in DMSO, Fluorogenic HDAC substrate 3, and HDAC6 human recombinant enzyme were diluted to 20 μM, 200 μM, and 7 ng/uL, respectively, using HDAC Assay Buffer.BSA was dissolved in 1 mL of distilled water to make a BSA solution at a concentration of 1 mg/mL. A certain amount of Fluorogenic HDAC substrate 3, BSA and HDAC Assay Buffer were mixed well to make a master mix, and 40 μL of the master mix was added to each well of a 96-well plate. In the drug administration group, 5 μL of Trichostatin A in DMSO and HDAC6 human recombinant enzyme were added to each well. 5 μL of HDAC Assay Buffer and HDAC6 human recombinant enzyme were added to each well of the blank group, and incubated for 30 min at 37 °C. Finally, 50 μL of undiluted HDAC substrate 3, BSA and HDAC Assay Buffer were added to each well. 50 μL of 2x HDAC Developer was added to each well and incubated at room temperature for 15 min. The samples were read in an enzyme marker with an excitation wavelength in the range of 350-380 nm and an emission light in the range of 440-460 nm.
The values of fluorescence intensities were read and the inhibition rate and IC50 were calculated. […]

Data set [6] concerns the target T2, rhIDO1 (Homo sapiens, UniProt P14902).
T2 construct: purchased
Description: IDO1 inhibition assay. The class given is biochemical. As to conditions: means ± S.D. of three independent experiments. The procedure:
Section S1. Biological assays […]
Section S 1.2 IDO1 inhibition assays
IDO1 inhibition assays were carried out according to the manufacturers’ procedures, as described previously. The standard assay mixture (100 μL) contained 50 mM of potassium phosphate buffer (pH = 6.5), 10 mM ascorbate, 10 μM methylene blue, 100 μg/mL catalase, 1 mM L-tryptophan and 10 μg/mL of rhIDO1. The plate was incubated at 37 °C in a dark environment, and reactions were terminated after 60 min by the addition of 50 μL of fluorogenic developer solution and further incubated at 45 °C in dark for 3 h. Then, the plate was allowed to cool to room temperature for at least 1 h. After centrifugation at 1500g for 5 min at 20 °C, the fluorescence […]
M1000 Pro, Tecan US, Morrisville, NC) in an end-point mode. […]

A short description of data set [7]: General toxicity in CT26 tumor-bearing BALB/c mice (body weight, H&E of organs). The conditions noted are these: 150 mg/kg ip every 3 days for 21 days, versus vehicle group. The class given is in vivo. As to the method: After that, fixed cells were washed with PBS. Then, cells were isolated by centrifugation and stained with propidium iodide (KeyGEN BioTECH, China) for 30 min. The samples were measured using flow cytometry and analyzed by Flowjo software.
Section S 1.6 Western blot assay […]
earlier were obtained by lysing the cells in ice-cold RIPA buffer with protease and phosphatase inhibitor and stored at -20°C for future use. The protein concentrations were quantified by the Bradford method (Bio-Rad) using a Multimode Varioscan instrument (Thermo Fischer Scientific). […]
and transferred to a polyvinylidene difluoride (PVDF) membrane (Amersham Biosciences). After the membrane was blocked at room temperature for 2 h in blocking solution, primary antibody was added and incubated at 4°C overnight. Ac-α-tubulin, Ac-histone H3 and GAPDH antibodies were purchased from Imgenex, USA. After three TBST washes, the membrane was incubated with corresponding horseradish peroxidase-labeled secondary antibody (1:2,000) (Santa Cruz) at room temperature for 1 h. Membranes were washed with TBST three times for 15 min and the protein bands were detected with chemiluminescence reagent (Thermo Fischer Scientific). The X-ray films were developed using developer and fixed with fixer solution.
Section S 1.7 In vivo antitumor efficacy […]
line CT-26 in BALB/c mice as described previously. Five-week-old male BALB/c mice were purchased from the Shanghai Ling Chang biotechnology company (China), and tumors were induced through subcutaneous injection of 1 × 10^7 cells in 100 µL of sterile PBS into the dorsal region. The animals were divided into four groups, starting on the second day. When the tumors reached a volume of 50−100 mm3 in all mice, the first group was administered intraperitoneally with an equivalent volume of 5% dextrose as the vehicle control. The second group was treated with […]
treated with complex 10e at doses of 150 mg/kg body weight once every 3 days for 3 weeks, respectively. All compounds were dissolved in vehicle. Tumor volumes and body weights were […]

We go through twelve compounds from paper PMC12195740, “Discovery of Novel Imidazothiazole-Based Hydroxamic Acid Derivatives as Potent Indoleamine 2,3-Dioxygenase 1 and Histone Deacetylase 6 Dual Inhibitors” (Molecules, 2025).

What is called IC50 is the concentration at which inhibition is half-maximal. By inhibition is commonly meant the change of the read-out against control, counted positive when it falls.

Molecules are shown by their SMILES. Some results are limits rather than exact numbers.

T2 sequence (P14902 whole entry): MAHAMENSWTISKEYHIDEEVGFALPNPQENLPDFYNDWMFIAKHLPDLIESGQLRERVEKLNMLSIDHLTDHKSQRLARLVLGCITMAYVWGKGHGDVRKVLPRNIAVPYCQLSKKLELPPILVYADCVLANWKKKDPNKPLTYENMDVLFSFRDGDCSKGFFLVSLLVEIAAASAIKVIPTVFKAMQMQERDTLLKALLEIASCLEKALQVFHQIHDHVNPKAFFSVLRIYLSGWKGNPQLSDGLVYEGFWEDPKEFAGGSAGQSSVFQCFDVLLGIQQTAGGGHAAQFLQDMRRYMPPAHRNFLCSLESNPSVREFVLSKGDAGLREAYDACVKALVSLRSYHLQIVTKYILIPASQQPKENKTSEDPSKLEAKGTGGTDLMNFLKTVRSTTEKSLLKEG

On to `NS(=O)(=O)NCCNc1nonc1C(=NO)Nc1ccc(F)c(Br)c1` [Epacadostat, reference compound], for which the half-maximal inhibitory concentration (IC50) in data set [1], in data set [2], in data set [3] and in data set [4] was greater than 80000 nM each time.
For the compound `O=C(CCNc1ccc(NC(=O)c2cnc3scc(-c4ccc(Br)cc4)n23)cc1)NO` [Compound 10a, 3-(4-Bromophenyl)-N-{4-[(3-(hydroxyamino)-3-oxopropyl)amino]phenyl}imidazo[2,1-b]thiazole-5-carboxamide], the inhibition at 1 µM in data set [5] was found to be 22.4%. The same compound had an IC50 in data set [6] of 1870 ± 60 nM.
As to `Cc1ccc(-c2csc3ncc(C(=O)Nc4ccc(NCCCCC(=O)NO)cc4)n23)cc1` [Compound 10i, N-{4-[(5-(hydroxyamino)-5-oxopentyl)amino]phenyl}-3-(p-tolyl)imidazo[2,1-b]thiazole-5-carboxamide], the inhibition at 1 µM in data set [5] was 35.5%. For the same compound, the half-maximal inhibitory concentration (IC50) in data set [6] was found to be 590 ± 110 nM.
Consider `Cc1ccc(-c2csc3ncc(C(=O)Nc4ccc(NCC(=O)NO)cc4)n23)cc1` [Compound 10f, N-{4-[(2-(hydroxyamino)-2-oxoethyl)amino]phenyl}-3-(p-tolyl)imidazo[2,1-b]thiazole-5-carboxamide], for which, in data set [5], the inhibition at 1 µM was 28.8%. In data set [6], this compound gave a half-inhibitory concentration (IC50) of 6160 ± 830 nM.
For the compound `O=C(CCCCCNc1ccc(NC(=O)c2cnc3scc(-c4ccc(Br)cc4)n23)cc1)NO` [Compound 10d], the inhibition at 1 µM in data set [5] is 46.2%. In addition, the IC50 in data set [1] is greater than 80000 nM; in data set [2], greater than 80000 nM; in data set [6], 120 ± 10 nM; in data set [3], 24400 ± 4780 nM; in data set [4], 52900 ± 6950 nM.
Regarding `O=C(CCCCCCC(=O)Nc1ccccc1)NO` [SAHA, reference compound], the inhibition at 1 µM in data set [5] turned out to be 91.7%. The “influence on body weight of the mice” value in data set [7] is listed as “no obvious influence”.
`Cc1ccc(-c2csc3ncc(C(=O)Nc4ccc(NCCCCCC(=O)NO)cc4)n23)cc1` [Compound 10j, N-{4-[(6-(hydroxyamino)-6-oxohexyl)amino]phenyl}-3-(p-tolyl)imidazo[2,1-b]thiazole-5-carboxamide]: the inhibition at 1 µM in data set [5] turned out to be 40.2%. Also, the half-inhibitory concentration (IC50) was greater than 80000 nM in data set [1]; greater than 80000 nM in data set [2]; 380 ± 50 nM in data set [6]; greater than 80000 nM in data set [3]; greater than 80000 nM in data set [4].
With `O=C(CCCCNc1ccc(NC(=O)c2cnc3scc(-c4ccc(Br)cc4)n23)cc1)NO` [Compound 10c, 3-(4-Bromophenyl)-N-{4-[(5-(hydroxyamino)-5-oxopentyl)amino)phenyl}imidazo[2,1-b]thiazole-5-carboxamide], the inhibition at 1 µM in data set [5] came out at 19.4%. The compound also registered a half-inhibitory concentration (IC50) in data set [6] of 340 ± 90 nM.
Turning to `Cc1ccc(-c2csc3ncc(C(=O)Nc4ccc(NCCC(=O)NO)cc4)n23)cc1` [Compound 10g, N-{4-[(3-(hydroxyamino)-3-oxopropyl)amino]phenyl}-3-(p-tolyl)imidazo[2,1-b]thiazole-5-carboxamide], in data set [5], the inhibition at 1 µM was found to be 31.2%. This compound registered an IC50 in data set [6] of 2070 ± 290 nM.
Take `Cc1ccc(-c2csc3ncc(C(=O)Nc4ccc(NCCCC(=O)NO)cc4)n23)cc1` [Compound 10h, N-{4-[(4-(hydroxyamino)-4-oxobutyl)amino]phenyl}-3-(p-tolyl)imidazo[2,1-b]thiazole-5-carboxamide]: the inhibition at 1 µM in data set [5] was determined as 33.7%. This compound showed an IC50 in data set [6] of 1780 ± 470 nM.
Take `O=C(CCCNc1ccc(NC(=O)c2cnc3scc(-c4ccc(Br)cc4)n23)cc1)NO` [Compound 10b, 3-(4-Bromophenyl)-N-{4-[(4-(hydroxyamino)-4-oxobutyl)amino)phenyl}imidazo[2,1-b]thiazole-5-carboxamide]: the inhibition at 1 µM in data set [5] came to 25.2%. The same compound showed an IC50 in data set [6] of 1060 ± 20 nM.
In the case of `Cc1ccc(-c2csc3ncc(C(=O)NCc4ccc(C(=O)NO)cc4)n23)cc1` [Compound 7b, N-[4-(hydroxycarbamoyl)benzyl]-3-(p-tolyl)imidazo[2,1-b]thiazole-5-carboxamide], the inhibition at 1 µM in data set [5] came out at 48%. Besides, the IC50 in data set [6] was determined as 960 ± 130 nM.
